Test results published in PubChem BioAssay AID248 (DTP/NCI, 2004).
Values joined by “and” are separate entries in the source; they are usually repeats but may differ in a detail not shown here. Equal values may be shown once. Toxic doses and inconclusive results are not listed. No stated cut-off is given here; in the data, active means T/C of 150% or more; inactive means T/C below 125%.

System: L1210 leukemia ip in BDF1 mice, survival T/C
Test: NCI In Vivo Anticancer Drug Screen. Data for tumor model L1210 Leukemia (intraperitoneal) in B6D2F1 (BDF1) mice
Settings: endpoint: mean survival time, higher = longer survival
Method in brief: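 Transplanted-tumor mice were given test agent; controls received vehicle only. Survival readings from the two groups were divided (treated over control).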

[1] = dose: 100.0 mg/kg/injection, schedule: Q04DX002 (ip), vehicle: saline with Tween-80
[2] = dose: 100.0 mg/kg/injection, schedule: Q01DX009 (ip), vehicle: Klucel (hydroxypropylcellulose) (HPC)
[3] = dose: 200.0 mg/kg/injection, schedule: Q01DX009 (ip), vehicle: Klucel (hydroxypropylcellulose) (HPC)
[4] = dose: 400.0 mg/kg/injection, schedule: Q01DX009 (ip), vehicle: Klucel (hydroxypropylcellulose) (HPC)
[5] = dose: 100.0 mg/kg/injection, schedule: Q04DX002 (ip), vehicle: Klucel (hydroxypropylcellulose) (HPC)
[6] = dose: 200.0 mg/kg/injection, schedule: Q04DX002 (ip), vehicle: Klucel (hydroxypropylcellulose) (HPC)
[7] = dose: 400.0 mg/kg/injection, schedule: Q04DX002 (ip), vehicle: Klucel (hydroxypropylcellulose) (HPC)
[8] = dose: 100.0 mg/kg/injection, schedule: Q01DX009 (ip), vehicle: saline with Tween-80
[9] = dose: 100.0 mg/kg/injection, schedule: Q04DX003 (ip), vehicle: saline with Tween-80
[10] = dose: 200.0 mg/kg/injection, schedule: Q01DX009 (ip), vehicle: saline with Tween-80
[11] = dose: 200.0 mg/kg/injection, schedule: Q04DX003 (ip), vehicle: saline with Tween-80
[12] = dose: 25.0 mg/kg/injection, schedule: Q01DX009 (ip), vehicle: saline with Tween-80
[13] = dose: 50.0 mg/kg/injection, schedule: Q01DX009 (ip), vehicle: saline with Tween-80
[14] = dose: 100.0 mg/kg/injection, schedule: Q01DX001 (ip), vehicle: saline
[15] = dose: 200.0 mg/kg/injection, schedule: Q01DX001 (ip), vehicle: saline
[16] = dose: 400.0 mg/kg/injection, schedule: Q01DX001 (ip), vehicle: saline
[17] = dose: 100.0 mg/kg/injection, schedule: Q04DX003 (ip), vehicle: saline
[18] = dose: 200.0 mg/kg/injection, schedule: Q04DX002 (ip), vehicle: saline with Tween-80

Measured: T/C

CN1C2CCC1CC(OC(=O)c1ccccc1)C2 (stereo not given)
inactive: dose: 25.0 mg/kg/injection, schedule: Q04DX002 (ip), vehicle: saline with Tween-80 94 % of control | dose: 50.0 mg/kg/injection, schedule: Q04DX002 (ip), vehicle: saline with Tween-80 105 % of control | [1] 94 % of control

CCCCCCCN(CCCCCCC)CC(O)c1cc2ccc(Cl)cc2nc1-c1ccc(Cl)cc1 (stereo not given)
inactive: [2] 87 % of control | [3] 97 % of control | [4] 87 % of control

Clc1ccc(CSSCc2ccc(Cl)cc2)cc1
inactive: [5] 95 % of control | [6] 110 % of control | [7] 100 % of control

Cc1cc(Cl)ccc1NC(=O)c1ccc([N+](=O)[O-])cc1
inactive: [8] 92 % of control | [9] 92 % of control | [10] 86 % of control | [11] 93 % of control | dose: 400.0 mg/kg/injection, schedule: Q04DX003 (ip), vehicle: saline with Tween-80 92 % of control

CCOC(=O)C(CCSC(C)=O)SC(C)=O (stereo not given)
inactive: [12] 94 % of control | [13] 96 % of control | [8] 89 % of control | [9] 95 % of control | [11] 92 % of control

CCCSc1ncnc2c1ncn2COC(=O)NC
inactive: [14] 97 % of control | [15] 108 % of control | [16] 108 % of control

Cc1cc(N(C)C)c(C(C)C)cc1O (tested in a mixture with another compound)
inactive: dose: 3.2 micrograms/kg/injection, schedule: Q01DX009 (ip), vehicle: saline 95 % of control | dose: 6.3 micrograms/kg/injection, schedule: Q01DX009 (ip), vehicle: saline 90 % of control | dose: 12.5 micrograms/kg/injection, schedule: Q01DX009 (ip), vehicle: saline 105 % of control

NC(=O)c1ncn(C2CCCC2O)c1N (stereo not given)
inactive: [14] 91 % of control | [15] 102 % of control | [16] 86 % of control

COC(=O)C(=O)OC(=O)C(=O)OC
inactive: dose: 25.0 mg/kg/injection, schedule: Q04DX003 (ip), vehicle: saline 104 % of control | dose: 50.0 mg/kg/injection, schedule: Q04DX003 (ip), vehicle: saline 120 % of control | [17] 92 % of control

CC(=O)OC(C[N+](=O)[O-])C(Cl)(Cl)Cl (stereo not given)
inactive: dose: 6.25 mg/kg/injection, schedule: Q01DX009 (ip), vehicle: saline sonified 107 % of control | dose: 12.5 mg/kg/injection, schedule: Q01DX009 (ip), vehicle: saline sonified 107 % of control | dose: 12.5 mg/kg/injection, schedule: Q04DX003 (ip), vehicle: Klucel (hydroxypropylcellulose) (HPC) 97 % of control | dose: 25.0 mg/kg/injection, schedule: Q01DX009 (ip), vehicle: saline sonified 106 % of control | dose: 25.0 mg/kg/injection, schedule: Q04DX003 (ip), vehicle: Klucel (hydroxypropylcellulose) (HPC) 103 % of control

COC(=O)c1cc(Cl)cc(N)c1Cl
inactive: [5] 98 % of control | [6] 98 % of control | [7] 91 % of control

CCN(CC)CC(=O)NCC(CCN1CCOCC1)(CC(C)C)c1cccc2ccccc12 (stereo not given)
inactive: dose: 50.0 mg/kg/injection, schedule: Q01DX009 (ip), vehicle: saline 111 % of control | dose: 100.0 mg/kg/injection, schedule: Q01DX009 (ip), vehicle: saline 105 % of control | [17] 96 % of control | dose: 200.0 mg/kg/injection, schedule: Q04DX003 (ip), vehicle: saline 97 % of control

CN(C)c1ccc(/C=N/NC=O)c(Cl)c1
inactive: dose: 10.0 mg/kg/injection, schedule: Q01DX001 (ip), vehicle: acetone 103 % of control | dose: 20.0 mg/kg/injection, schedule: Q01DX001 (ip), vehicle: acetone 110 % of control | dose: 40.0 mg/kg/injection, schedule: Q01DX001 (ip), vehicle: acetone 95 % of control

CCc1c[n+]([O-])c(C)cc1C(=O)O
inactive: [2] 92 % of control | dose: 100.0 mg/kg/injection, schedule: Q04DX003 (ip), vehicle: Klucel (hydroxypropylcellulose) (HPC) 97 % of control | [3] 92 % of control | dose: 200.0 mg/kg/injection, schedule: Q04DX003 (ip), vehicle: Klucel (hydroxypropylcellulose) (HPC) 95 % of control | [4] 92 % of control | dose: 400.0 mg/kg/injection, schedule: Q04DX003 (ip), vehicle: Klucel (hydroxypropylcellulose) (HPC) 95 % of control

C#CCN(CCCC)CCCC
inactive: [1] 95 % of control | [18] 100 % of control

C/C=C/CC/C(=N\Nc1ccc([N+](=O)[O-])cc1[N+](=O)[O-])c1ccccc1
inactive: dose: 100.0 mg/kg/injection, schedule: Q01DX001 (ip), vehicle: Klucel (hydroxypropylcellulose) (HPC) 96 % of control | dose: 200.0 mg/kg/injection, schedule: Q01DX001 (ip), vehicle: Klucel (hydroxypropylcellulose) (HPC) 96 % of control | dose: 400.0 mg/kg/injection, schedule: Q01DX001 (ip), vehicle: Klucel (hydroxypropylcellulose) (HPC) 100 % of control

O=C(c1ccc(Cl)cc1Cl)C(Cl)Cl
inactive: dose: 30.0 mg/kg/injection, schedule: Q01DX015 (ip), vehicle: saline 98 % of control | dose: 60.0 mg/kg/injection, schedule: Q01DX015 (ip), vehicle: saline 91 % of control | dose: 120.0 mg/kg/injection, schedule: Q01DX015 (ip), vehicle: saline 98 % of control

N#CCCP(=S)(c1ccccc1)c1ccccc1
inactive: dose: 100.0 mg/kg/injection, schedule: Q01DX001 (ip), vehicle: other 104 % of control | dose: 100.0 mg/kg/injection, schedule: Q04DX003 (ip), vehicle: other 102 % of control | dose: 200.0 mg/kg/injection, schedule: Q01DX001 (ip), vehicle: other 98 % of control | dose: 200.0 mg/kg/injection, schedule: Q04DX003 (ip), vehicle: other 96 % of control | dose: 400.0 mg/kg/injection, schedule: Q01DX001 (ip), vehicle: other 102 % of control | dose: 400.0 mg/kg/injection, schedule: Q04DX003 (ip), vehicle: other 90 % of control

Cc1cc(OC(=O)Nc2cccc(Cl)c2C)ccc1[N+](=O)[O-]
inactive: [12] 104 % of control and 111 % of control | [13] 97 % of control and 103 % of control | [1] 100 % of control and 107 % of control | [9] 105 % of control | [10] 89 % of control | [18] 101 % of control and 104 % of control | [11] 100 % of control | dose: 400.0 mg/kg/injection, schedule: Q04DX002 (ip), vehicle: saline with Tween-80 93 % of control

CCOC(=O)NC(=S)[S][Sb]([S]C(=S)NC(=O)OCC)[S]c1nc2ccc(N=Nc3ccc(NS(=O)(=O)c4ccc(NC(=O)C(Cl)Cl)cc4)cc3)cc2s1
inactive: dose: 100.0 mg/kg/injection, schedule: Q01DX001 (ip), vehicle: steriod suspending solution 95 % of control | dose: 200.0 mg/kg/injection, schedule: Q01DX001 (ip), vehicle: steriod suspending solution 105 % of control | dose: 400.0 mg/kg/injection, schedule: Q01DX001 (ip), vehicle: steriod suspending solution 92 % of control

O=c1c(-c2ccccc2)c(S)sc(S)c1-c1ccccc1
inactive: dose: 100.0 mg/kg/injection, schedule: Q04DX002 (ip), vehicle: gum acacia 93 % of control | dose: 200.0 mg/kg/injection, schedule: Q04DX002 (ip), vehicle: gum acacia 104 % of control | dose: 400.0 mg/kg/injection, schedule: Q04DX002 (ip), vehicle: gum acacia 93 % of control
